# Laboratory results: EPA's ToxRefDB 2
# Tests used:
# [1] = tested on: rat; settings: Prenatal developmental toxicity study, sprague dawley, Oral, Gavage/Intubation, dose end: 15 GD
# [2] = tested on: rat; settings: Carcinogenicity, fischer, Oral, Gavage/Intubation, dose end: 103 week, group: systemic
# [3] = tested on: mouse; settings: Subchronic oral toxicity in rodents, b6c3f1, Gavage/Intubation, dose end: 13 week, group: systemic
# [4] = tested on: rat; settings: Subchronic oral toxicity in rodents, fischer, Gavage/Intubation, dose end: 13 week, group: systemic
# [5] = tested on: rat; settings: Subchronic dermal toxicity, sprague dawley, Topical, dose end: 13 week, group: systemic, systemic / pathology microscopic / liver / inflammation + systemic / pathology microscopic / liver / necrosis + systemic / in life …
# [6] = tested on: mouse; settings: Sub-acute repeat dose toxicity; b6c3f1; Oral; Gavage/Intubation; dose end: 16 day; group: systemic; systemic / pathology gross / stomach / erosion + systemic / pathology gross / stomach / ulcer + systemic / pathology microscopic / stomach…
# [7] = tested on: rat; settings: Sub-acute repeat dose toxicity; fischer; Oral; Gavage/Intubation; dose end: 16 day; group: systemic; systemic / pathology microscopic / stomach / hyperkeratosis + systemic / pathology microscopic / stomach / hyperplasia + systemic / …
# [8] = tested on: mouse; settings: Carcinogenicity; b6c3f1; Oral; Gavage/Intubation; dose end: 103 week; group: systemic; systemic / pathology microscopic / stomach / acanthosis + systemic / pathology microscopic / stomach / hyperkeratosis + systemic / pathology…
# [9] = tested on: dog; settings: Sub-acute repeat dose toxicity; beagle; Oral; Gavage/Intubation; dose end: 4 day; group: systemic; systemic / in life observation / clinical signs / erythema + systemic / in life observation / clinical signs / reduced activity + systemic…
# [10] = tested on: primate; settings: Sub-acute repeat dose toxicity, marmoset, Oral, Gavage/Intubation, dose end: 4 day, group: systemic
# [11] = tested on: dog; settings: Sub-acute repeat dose toxicity; beagle; Oral; Gavage/Intubation; dose end: 4 day; group: systemic; systemic / clinical chemistry / [other] / [other] + systemic / clinical chemistry / apolipoprotein a1 / apolipoprotein a1 + systemic / …
# [12] = tested on: rat; settings: Subchronic oral toxicity in rodents, wistar, Gavage/Intubation, dose end: 91 day, group: systemic
# [13] = tested on: primate; settings: Subchronic oral toxicity in nonrodent, Gavage/Intubation, dose end: 91 day, group: systemic, systemic / in life observation / clinical signs / emesis
# [14] = tested on: rat; settings: Sub-acute repeat dose toxicity; Oral; Gavage/Intubation; dose end: 5 day; group: systemic; systemic / in life observation / clinical signs / arrhythmia + systemic / in life observation / clinical signs / dehydration + systemic / in…
# [15] = tested on: rabbit; settings: Sub-acute repeat dose toxicity, Oral, Gavage/Intubation, dose end: 5 day, group: systemic
# [16] = tested on: rat; settings: Subchronic oral toxicity in rodents, sprague dawley, Feed, dose end: 13 week, group: systemic
# [17] = tested on: dog; settings: Subchronic oral toxicity in nonrodent, beagle, Capsule, dose end: 93 day, group: systemic
# [18] = tested on: dog; settings: Chronic toxicity, beagle, Oral, Capsule, dose end: 52 week, group: systemic
# [19] = tested on: rat; settings: Combined chronic toxicity/carcinogenicity, sprague dawley, Oral, Feed, dose end: 104 week, group: systemic
# [20] = tested on: mouse; settings: Carcinogenicity, other, Oral, Feed, dose end: 104 week, group: systemic
# [21] = tested on: mouse; settings: Subchronic oral toxicity in rodents, b6c3f1, Feed, dose end: 13 week, group: systemic
# [22] = tested on: rat; settings: Subchronic oral toxicity in rodents, fischer, Feed, dose end: 13 week, group: systemic
# [23] = tested on: rat; settings: Carcinogenicity, fischer, Oral, Feed, dose end: 103 week, group: systemic
# [24] = tested on: rat; settings: Subchronic oral toxicity in rodents, fischer, Feed, dose end: 13 week, group: systemic; remark: listed apart in the source
# [25] = tested on: mouse; settings: Carcinogenicity; b6c3f1; Oral; Feed; dose end: 103 week; group: systemic; systemic / pathology gross / urinary bladder / stones + systemic / pathology microscopic / urinary bladder / hyperplasia + systemic / …
# [26] = tested on: rat; settings: Subchronic oral toxicity in rodents, fischer, Feed, dose end: 13 week, group: systemic, systemic / in life observation / body weight / body weight gain + systemic / pathology gross / urinary bladder / stones
# [27] = group: developmental, systemic / in life observation / body weight / fetal weight
# [28] = group: maternal, systemic / in life observation / body weight / body weight gain + systemic / in life observation / food consumption / food consumption + …
# [29] = systemic / pathology microscopic / stomach / acanthosis + systemic / pathology microscopic / stomach / hyperplasia + systemic / pathology …
# [30] = systemic / organ weight / kidney / relative to body weight + systemic / organ weight / liver / relative to body weight
# [31] = systemic / organ weight / kidney / relative to body weight + systemic / organ weight / liver / relative to body weight + systemic / …
# [32] = systemic / pathology microscopic / stomach / acanthosis + systemic / pathology microscopic / stomach / hyperkeratosis
# [33] = systemic / pathology microscopic / stomach / acanthosis + systemic / pathology microscopic / stomach / hyperkeratosis + systemic / in life …
# [34] = systemic / in life observation / clinical signs / defecation (diarrhea) + systemic / pathology microscopic / salivary glands / degeneration…
# [35] = systemic / pathology microscopic / salivary glands / degeneration + systemic / hematology / fibrinogen / fibrinogen + systemic / pathology …
# [36] = systemic / in life observation / body weight / body weight + systemic / in life observation / clinical signs / abnormal feces + systemic / …
# [37] = systemic / pathology microscopic / intestine large / hyperplasia + systemic / pathology microscopic / stomach / hyperplasia
# [38] = systemic / in life observation / body weight / body weight + systemic / in life observation / clinical signs / abnormal respiratory sounds…
# [39] = systemic / in life observation / clinical signs / nasal discharge + systemic / in life observation / food consumption / food consumption
# [40] = systemic / in life observation / body weight / body weight + systemic / in life observation / clinical signs / distended abdomens + systemic…
# [41] = systemic / organ weight / kidney / relative to body weight
# [42] = systemic / clinical chemistry / albumin / albumin + systemic / clinical chemistry / alkaline phosphatase (alp/alk) / alkaline phosphatase (…
# [43] = systemic / clinical chemistry / cholesterol / cholesterol
# [44] = systemic / clinical chemistry / alkaline phosphatase (alp/alk) / alkaline phosphatase (alp/alk) + systemic / clinical chemistry / …
# [45] = systemic / in life observation / body weight / body weight + systemic / in life observation / food consumption / food consumption + systemic…
# [46] = systemic / in life observation / body weight / body weight
# [47] = systemic / in life observation / body weight / body weight + systemic / organ weight / kidney / absolute + systemic / organ weight / liver…
# [48] = systemic / in life observation / body weight / body weight gain
# [49] = systemic / in life observation / body weight / body weight gain + systemic / pathology gross / urinary bladder / stones + systemic / …
# [50] = systemic / in life observation / body weight / body weight gain + systemic / in life observation / food consumption / food consumption + …
# [51] = systemic / pathology gross / urinary bladder / stones
# [52] = systemic / pathology gross / urinary bladder / stones + systemic / in life observation / body weight / body weight gain + systemic / …
smiles,measurement,setting,value
CC(=O)OC1CC(C)OC(C)O1 (centres undefined) [Dimethoxane],LEL,[1]; [27],500 mg/kg/day
same,LOAEL,[1]; [27],500 mg/kg/day
same,NEL,[1]; [27],250 mg/kg/day
same,NOAEL,[1]; [27],250 mg/kg/day
same,LOAEL,"[1]; group: maternal, systemic / in life observation / body weight / body weight gain + systemic / in life observation / food consumption / food consumption",250 mg/kg/day
same,LEL,[1]; [28],250 mg/kg/day
same,NEL,[1]; [28],125 mg/kg/day
same,NOAEL,[1]; [28],125 mg/kg/day
same,LEL,[2]; systemic / pathology microscopic / stomach / acanthosis + systemic / pathology microscopic / stomach / hyperkeratosis + systemic / pathology…,125 mg/kg/day
same,LOAEL,[2]; [29],> 250 mg/kg/day
same,NOAEL,[2]; [29],≥ 250 mg/kg/day
same,LEL,[3]; [30],31 mg/kg/day
same,NEL,[3]; [30],< 31 mg/kg/day
same,LOAEL,[3]; [31],> 500 mg/kg/day
same,NOAEL,[3]; [31],≥ 500 mg/kg/day
same,LEL,[4]; [32],62 mg/kg/day
same,LOAEL,[4]; [32],250 mg/kg/day
same,NEL,[4]; [33],31 mg/kg/day
same,NOAEL,[4]; [33],125 mg/kg/day
same,LEL,[5],300 mg/kg/day
same,LOAEL,[5],300 mg/kg/day
same,NEL,[5],100 mg/kg/day
same,NOAEL,[5],100 mg/kg/day
same,LEL,[6],500 mg/kg/day
same,LOAEL,[6],500 mg/kg/day
same,NEL,[6],250 mg/kg/day
same,NOAEL,[6],250 mg/kg/day
same,LEL,[7],125 mg/kg/day
same,LOAEL,[7],250 mg/kg/day
same,NEL,[7],< 125 mg/kg/day
same,NOAEL,[7],125 mg/kg/day
same,LEL,[8],250 mg/kg/day
same,LOAEL,[8],250 mg/kg/day
same,NEL,[8],< 250 mg/kg/day
same,NOAEL,[8],< 250 mg/kg/day
Nc1cc2c3c(c1)C(c1ccccc1)=N[C@@H](NC(=O)c1cccnc1)C(=O)N3CC2 [CI-1044],LEL,[9],50 mg/kg/day
same,LOAEL,[9],> 50 mg/kg/day
same,NEL,[9],< 50 mg/kg/day
same,NOAEL,[9],≥ 50 mg/kg/day
same,LOAEL,[10]; [34],> 320 mg/kg/day
same,NOAEL,[10]; [34],≥ 320 mg/kg/day
same,LEL,[10]; [35],80 mg/kg/day
same,NEL,[10]; [35],< 80 mg/kg/day
same,LEL,[11],20 mg/kg/day
same,LOAEL,[11],> 20 mg/kg/day
same,NEL,[11],< 20 mg/kg/day
same,NOAEL,[11],≥ 20 mg/kg/day
same,LOAEL,[12]; [36],> 25 mg/kg/day
same,NOAEL,[12]; [36],≥ 25 mg/kg/day
same,LEL,[12]; [37],3 mg/kg/day
same,NEL,[12]; [37],< 3 mg/kg/day
same,LEL,[13],1 mg/kg/day
same,LOAEL,[13],> 15 mg/kg/day
same,NEL,[13],< 1 mg/kg/day
same,NOAEL,[13],≥ 15 mg/kg/day
same,LOAEL,[14],> 50 mg/kg/day
same,NEL,[14],10 mg/kg/day
same,NOAEL,[14],≥ 50 mg/kg/day
same,LOAEL,[15]; [38],> 1000 mg/kg/day
same,NOAEL,[15]; [38],≥ 1000 mg/kg/day
same,LEL,[15]; [39],50 mg/kg/day
same,NEL,[15]; [39],< 50 mg/kg/day
CO/C=C(/C(=O)OC)c1ccccc1Oc1cc(Oc2ccccc2C#N)ncn1 [Azoxystrobin],LOAEL,[16]; [40],211 mg/kg/day
same,NOAEL,[16]; [40],20.4 mg/kg/day
same,LEL,[16]; [41],22.4 mg/kg/day
same,NEL,[16]; [41],< 22.4 mg/kg/day
same,LOAEL,[17]; [42],250 mg/kg/day
same,NOAEL,[17]; [42],50 mg/kg/day
same,LEL,[17]; [43],10 mg/kg/day
same,NEL,[17]; [43],< 10 mg/kg/day
same,LOAEL,[18]; [44],200 mg/kg/day
same,NEL,[18]; [44],3 mg/kg/day
same,NOAEL,[18]; [44],25 mg/kg/day
same,LEL,[18]; systemic / organ weight / liver / absolute + systemic / clinical chemistry / cholesterol / cholesterol + systemic / clinical chemistry / …,25 mg/kg/day
same,NEL,[19]; systemic / clinical chemistry / aspartate aminotransferase (ast/sgot) / aspartate aminotransferase (ast/sgot) + systemic / clinical …,117 mg/kg/day
same,LOAEL,[19]; [45],82.4 mg/kg/day
same,NOAEL,[19]; [45],18.2 mg/kg/day
same,LOAEL,[20]; [46],272 mg/kg/day
same,LEL,[20]; [47],272 mg/kg/day
same,NEL,[20]; [47],37.5 mg/kg/day
same,NOAEL,[20]; [47],37.5 mg/kg/day
Nc1nc(N)nc(N)n1 [Melamine],LEL,[21]; [48],900 mg/kg/day
same,NEL,[21]; [48],< 900 mg/kg/day
same,LOAEL,[21]; [49],> 2700 mg/kg/day
same,NOAEL,[21]; [49],≥ 2700 mg/kg/day
same,LOAEL,[22]; [50],> 900 mg/kg/day
same,NOAEL,[22]; [50],≥ 900 mg/kg/day
same,LEL,[22]; [51],300 mg/kg/day
same,NEL,[22]; [51],< 300 mg/kg/day
same,LEL,[23]; [46],112 mg/kg/day
same,NEL,[23]; [46],< 112 mg/kg/day
same,LOAEL,[23]; systemic / pathology microscopic / kidney / inflammation + systemic / pathology gross / urinary bladder / stones,225 mg/kg/day
same,LEL,[24]; [51],75 mg/kg/day
same,LOAEL,[24]; [52],> 600 mg/kg/day
same,NEL,[24]; [52],37.5 mg/kg/day
same,NOAEL,[24]; [52],≥ 600 mg/kg/day
same,LEL,[25],338 mg/kg/day
same,LOAEL,[25],338 mg/kg/day
same,NEL,[25],< 338 mg/kg/day
same,NOAEL,[25],< 338 mg/kg/day
same,LEL,[26],875 mg/kg/day
same,LOAEL,[26],> 875 mg/kg/day
same,NEL,[26],500 mg/kg/day
same,NOAEL,[26],≥ 875 mg/kg/day
